Measurements as given in patent US6989378B2, “Testosterone derivative” (Akzo Nobel N.V., priority 1998, dated 2006).
Converted amounts (≈) assume the structure as drawn. Where two headings read alike, the source gives them in different places.

Assays:
[1] = Solubility in oil solvent (amount of compound dissolved per ml of solvent); format: physicochemical; settings: for solubility at 15 min: oil or lipid, thermodynamic from solid, dissolved by heating in waterbath of 50° C. and Vortex shaking 15 minutes
Procedure: About 20–30 mgs of compound were powdered and then dissolved in as little solvent as necessary to dissolve all the visible particles. Dissolution was accomplished by heating in a waterbath of 50° C. and shaking on a Vortex™ shaker for 15 minutes. The solubility was calculated by determining the amount of compound (in mg) dissolved per ml of solvent.

rats = settings: anabolic and antigonadotropic effects; cited from earlier work
monkeys = settings: anabolic and antigonadotropic effects; cited from earlier work
[2] = arachis oil, read-out: solubility arachis oil
[3] = oleic acid, read-out: solubility oleic acid

Compound	solubility in arachis oil compared with the other androgens ([1]; arachis oil, comparison in words)	solubility at 15 min [1, 2] [mg/mL]	solubility at 15 min [1, 3] [mg/mL]	solubility in oleic acid compared with the known androgens ([1]; oleic acid, comparison in words)	androgenic potency relative to testosterone (rats)	androgenic potency relative to testosterone (monkeys)
CCCCCCCCCCC(=O)O[C@H]1CC[C@H]2[C@H]3[C@H](CC[C@]12C)[C@H]1CCC(=O)C=C1C[C@H]3C [MENT undecanoate, (7α,17β)-7-methyl-17-[(1-oxoundecyl)oxy]estr-4-en-3-one]	much better than that of any of the other androgens	> 200	≥ 500	better than expected	–	–
C[C@@H]1CC2=CC(=O)CC[C@@H]2[C@H]2CC[C@]3(C)[C@@H](O)CC[C@H]3[C@@H]21 [MENT, (7α,17β)-17-hydroxy-7-methylestr-4-en-3-one]	–	≤ 0.1	~15 (≈ 52 mM)	–	ten times more potent than testosterone	ten times more potent than testosterone
CCCCCCCCCCC(=O)O[C@H]1CC[C@H]2[C@@H]3CCC4=CC(=O)CC[C@]4(C)[C@H]3CC[C@]12C [testosterone undecanoate, (17β)-17-[(1-Oxoundecyl)oxy]androst-4-en-3-one]	–	~45 (≈ 98.5 mM)	200 to 250 (≈ 438 to 547 mM)	–	–	–
C[C@]12CC[C@H]3[C@@H](CCC4=CC(=O)CC[C@@]43C)[C@@H]1CC[C@@H]2O [testosterone]	–	< 0.1	~25 (≈ 86.7 mM)	–	–	–
